# Columns and labels:
# U‐87MG = assay: Cell death, PI staining and FACS; format: cell-based; conditions: anti‐TfR antibodies (1 : 250) 2 h, then peptide 5 μM 3 h, n = 2 (Fig. 3C)
# Protocol: Leukemia cells, U‐937, MEC‐1 cells (4 × 10^5 or 8 × 10^5 cells/sample, respectively), as well as other leukemia or suspension cell lines, were incubated in 200 μL serum‐free medium with various concentrations of the peptide for 90 min at 23–25 °C, collected by centrifugation (500 g, 5 min), washed with PBS, and analyzed for cell death. Adherent cells (6 × 10^5 mL^−1 at 70–80% confluence) were incubated with the peptide of interest in 500 μL serum‐free recommended culture medium for 3–6 h at 37 °C and 5% CO2. The cells were then trypsinized, centrifuged (1500 g, 5 min), washed with PBS, and analyzed for the desired activity. Following peptide treatment, cells were subjected to cell death analysis. […] PRO software (BD Biosciences, San Jose, CA, USA).
# For each line, cells were incubated with different peptide concentrations, and cell death was determined by PI staining and FACS analysis (Figs 1, 2, 3).
# [1] = test system: A549 cells (HK‐I in cytosolic fraction); assay: Mitochondria‐bound HK detachment, cell fractionation and immunoblotting; format: cell-based, human; conditions: A549, peptide 3, 5, 10 μM, 3 h; digitonin […]; immunoblot (Fig. 4E)
# Protocol: Peptide‐induced HK detachment from mitochondria to the cytosol was also analyzed by immunoblotting. […] Samples were centrifuged at 12 000 g at 4 °C for 10 min, and the obtained supernatants (cytosolic fraction) and pellets (mitochondria) were analyzed by immunoblotting using anti‐HK‐I, anti‐VDAC1, and anti‐GAPDH antibodies, and then with secondary HRP‐conjugated antibodies.
# HeLa cells = assay: Cellular ATP levels, luciferase‐based assay (CellTiter‐Glo); format: cell-based, human; conditions: 3 h, percentage of control, mean ± SE (n = 3) (Fig. 4F)
# Protocol: Cellular ATP levels were estimated using a luciferase‐based assay (CellTiter‐Glo; Promega). […] ATP levels were assayed according to the manufacturer's protocol, and luminescence was recorded using an Infinite M1000 plate reader (Tecan, Männedorf, Switzerland).
# A549 cells = assay: Apoptosis, acridine orange/ethidium bromide staining; format: cell-based, human; conditions: A549, 3 h; quantitation, mean ± SE (n = 3) (Fig. 5E)
# Protocol: For PI and annexin V–FITC staining, A549 or MDA‐MB‐231 cells, untreated or treated with VDAC1‐based peptides, were collected (1500 g for 5 min), washed, and resuspended in 200 μL binding buffer (10 mM HEPES/NaOH (pH 7.4), 140 mM NaCl, and 2.5 mM CaCl2). Annexin V–FITC staining was performed according to the recommended protocol. Cells were then washed once with binding buffer and resuspended in 200 μL binding buffer, to which PI was added immediately before flow cytometric analysis. At least 10 000 events were collected, recorded on a dot plot, and analyzed by flow cytometer. Acridine orange/ethidium bromide staining was carried as described previously (Zaid et al., 2005), with cells visualized by fluorescence microscopy (Olympus LX2‐KSP, Tokyo, Japan), and images were captured with a CCD camera. About 200 cells were counted for each experiment.
# HK‐I = target: T1, HK‐I (Homo sapiens, UniProt P19367); assay: HK activity assay with purified recombinant HK‐I; format: biochemical; conditions: HK‐I 13 µg/ml pre‐incubated with peptide; 1 mM ATP, G6PDH‐coupled, absorbance at 340 nm (Fig. S3B)
# T1 construct: His; made in house; host or cells: Escherichia coli BL21
# T1 sequence (P19367 1-917): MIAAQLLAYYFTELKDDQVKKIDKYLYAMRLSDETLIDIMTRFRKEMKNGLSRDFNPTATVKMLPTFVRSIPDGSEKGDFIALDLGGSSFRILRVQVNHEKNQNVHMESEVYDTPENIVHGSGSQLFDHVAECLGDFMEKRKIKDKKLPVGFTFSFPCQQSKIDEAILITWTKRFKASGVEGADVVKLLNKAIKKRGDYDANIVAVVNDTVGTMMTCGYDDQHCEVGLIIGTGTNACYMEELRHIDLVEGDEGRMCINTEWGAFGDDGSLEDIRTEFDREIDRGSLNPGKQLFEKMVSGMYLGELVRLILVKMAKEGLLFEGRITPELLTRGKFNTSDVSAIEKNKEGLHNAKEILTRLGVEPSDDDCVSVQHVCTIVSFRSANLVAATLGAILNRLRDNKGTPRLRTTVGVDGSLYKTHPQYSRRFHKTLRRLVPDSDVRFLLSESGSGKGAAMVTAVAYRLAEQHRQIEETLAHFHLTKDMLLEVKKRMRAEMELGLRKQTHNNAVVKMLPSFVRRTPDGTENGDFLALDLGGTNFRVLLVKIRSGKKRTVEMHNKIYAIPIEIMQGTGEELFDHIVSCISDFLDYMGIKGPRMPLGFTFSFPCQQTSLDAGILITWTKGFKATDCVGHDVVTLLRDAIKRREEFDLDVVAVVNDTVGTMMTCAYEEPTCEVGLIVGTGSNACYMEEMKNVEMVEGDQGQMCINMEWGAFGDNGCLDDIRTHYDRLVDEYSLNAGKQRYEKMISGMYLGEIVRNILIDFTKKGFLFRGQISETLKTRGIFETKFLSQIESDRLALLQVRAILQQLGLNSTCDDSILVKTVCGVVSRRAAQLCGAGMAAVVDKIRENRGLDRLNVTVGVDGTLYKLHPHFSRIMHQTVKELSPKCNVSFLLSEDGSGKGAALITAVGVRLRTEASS
# Protocol: Human HK‐I and HK‐II were cloned into plasmid pET‐His DNA and expressed in Escherichia coli BL21 upon IPTG induction. HK was purified from lysed cells using a HiTrap nickel column (GE Healthcare). Following dialysis, the imidazole‐eluted protein was further purified using a Blue HiTrap column (GE Healthcare). HK was eluted using 10 mM glucose, 20 mM Tris/HCl (pH 8.5), 20% glycerol, and 1.5 mM glucose‐6‐phosphate. Fractions were analyzed by SDS/PAGE and tested for HK activity. The purified active fractions were combined and stored in aliquots at −80 °C.
# Change in absorbance at 340 nm (NADH production) was spectrophotometrically measured following addition of 1 mM ATP and 0.05 unit·mL^−1 glucose‐6‐phosphate dehydrogenase.
# Purified HK-I (13 µg/ml) was pre-incubated with the indicated concentrations of Tf-D-LP4 (●) or R-Tf-D-LP4 (○) and assayed for HK activity as described in Materials and Methods. Change in absorbance at 340 nm (NADH production) was spectrophotometrically measured following addition of 1 mM ATP, and 0.05 unit/ml glucose-6-phosphate dehydrogenase. C. Tf-D-LP4 and R-Tf-D-LP4 solubility. The peptides were dissolved to a final concentration of 5 mM in 5% DMSO and diluted to 1.1 mM in HBSS. Peptide absorbance in the supernatant was measured at 280 nm following centrifugation at 12,000g before and after 75 min incubation at 24 °C. […] Cell death was analyzed using PI and FACS analysis. […]
structure (smiles),measurement,setting,value
CC[C@H](C)[C@H](NC(=O)[C@H](C)NC(=O)[C@@H](N)Cc1c[nH]cn1)C(=O)N[C@@H](Cc1ccc(O)cc1)C(=O)N1CCC[C@H]1C(=O)N[C@@H](CCCNC(=N)N)C(=O)N[C@@H](Cc1c[nH]cn1)C(=O)N[C@H](CO)C(=O)N[C@H](Cc1c[nH]c2ccccc12)C(=O)N[C@@H](C(=O)N[C@H](Cc1c[nH]c2ccccc12)C(=O)N[C@H](CCC(=O)O)C(=O)N[C@H](CCCCN)C(=O)N[C@H](CCCCN)C(=O)N[C@H](CC(C)C)C(=O)N[C@H](CCC(=O)O)C(=O)N[C@@H](C(=O)N[C@H](C)C(=O)N[C@@H](C(=O)N[C@H](CC(N)=O)C(=O)N[C@H](CC(C)C)C(=O)N[C@H](C)C(=O)N[C@H](Cc1c[nH]c2ccccc12)C(=O)N[C@@H](C(=O)N[C@H](C)C(=O)NCC(=O)N[C@H](CC(N)=O)C(=O)N[C@H](CO)C(=O)N[C@H](CC(N)=O)C(=O)N[C@H](CCCCN)C(=O)N[C@H](Cc1c[nH]c2ccccc12)C(=O)N[C@@H](C(=O)N[C@H](Cc1c[nH]c2ccccc12)C(=O)N[C@H](CCCCN)C(=O)O)[C@H](C)O)[C@H](C)O)C(C)C)[C@H](C)O)[C@H](C)O [Tf‐D‐LP4],decrease in peptide‐induced cell death in anti‐TfR antibody‐treated cells,U‐87MG,about twofold
same,increase in HK in the cytosolic fraction,[1],about twofold
same,decrease of cellular ATP levels,HeLa cells,about 40%
same,apoptotic cell death (acridine orange/ethidium bromide),A549 cells,over 70%
same,inhibition of purified HK‐I activity,HK‐I,but not Tf-D-LP4 inhibits HK-I activity
